According to US20210221784A1, “COMPOUNDS AND COMPOSITIONS FOR THE TREATMENT OF PAIN” (Université de Strasbourg, priority 2018, published 2021):

Molecular target: T1, hNPFFR1 (Homo sapiens, UniProt Q9GZQ6)
T1 construct: expressed in transfected cells; membranes
T1 sequence (Q9GZQ6 whole entry): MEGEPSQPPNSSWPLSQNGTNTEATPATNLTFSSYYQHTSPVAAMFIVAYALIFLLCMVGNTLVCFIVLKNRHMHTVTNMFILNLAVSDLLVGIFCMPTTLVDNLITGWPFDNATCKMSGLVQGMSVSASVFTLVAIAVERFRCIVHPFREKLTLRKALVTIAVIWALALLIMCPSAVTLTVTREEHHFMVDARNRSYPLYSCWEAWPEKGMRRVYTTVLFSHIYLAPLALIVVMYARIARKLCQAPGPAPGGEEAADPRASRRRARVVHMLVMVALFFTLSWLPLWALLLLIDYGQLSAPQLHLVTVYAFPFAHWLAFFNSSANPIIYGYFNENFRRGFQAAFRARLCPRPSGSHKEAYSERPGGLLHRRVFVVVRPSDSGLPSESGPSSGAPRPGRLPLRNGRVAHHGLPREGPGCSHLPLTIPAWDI
Assay: Radioligand binding competition, membranes from CHO cells expressing hNPFFR1
Conditions: 0.015 nM [D-Tyr1[125I], N-MePhe3]-NPFF, 1 hr at 25° C., read-out: NPFF1-R Ki
Procedure: Competition experiments with membranes from CHO cells stably expressing hNPFFR1 and hNPFFR2 were performed essentially as described in Elhabazi, K., et al. Neuropharmacology, 2013. 75C, 164-171., Briefly, hNPFFR1 or hNPFFR2 membranes (5 to 10 μg of proteins) were incubated (1 hr at 25° C.; 0.25 mL total volume) with 0.015 nM [D-Tyr1[125I], N-MePhe3]-NPFF (Hartmann Analytic GmbH) in 50 mM HEPES (pH 7.4), 1 mM CaCl2, 1 mM MgCl2 and 0.1% bovine serum albumin. Non-specific binding was determined in the presence of 10 μM RFRP-3. Incubation was terminated by rapid filtration through a 96-well GF/B unifilter apparatus (Perkin Elmer Life and Analytical Sciences, Courtaboeuf, France). Unifilters were washed five times with binding buffer, then dried for 1 h at 65° C. After addition of 40 μL scintillation cocktail (Microscint-O, Perkin Elmer) per well, bound radioactivity was determined on a TopCount scintillation counter (Perkin Elmer).
Compound Nc1ccc(-c2ccccc2)c(N)n1 [Compound 1a, 3-phenylpyridine-2,6-diamine] has a Ki of 0.188 µM.
Nc1ccc(-c2cccnc2)c(N)n1 [Compound 3e, [3,3′-bipyridine]-2,6-diamine] gave a Ki of 1.93 µM.
Nc1ccc(-c2ccncc2)c(N)n1 [Compound 3d, [3,4′-bipyridine]-2,6-diamine] showed a Ki of 5.39 µM.
With Nc1ccc(-c2ccccc2OC(F)(F)F)c(N)n1 [Compound 2c, 3-(2-(trifluoromethoxy)phenyl) pyridine-2,6-diamine] the Ki was 0.034 µM.

Molecular target: T2, human NPFFR1 (hNPFFR1) receptor (Homo sapiens, UniProt Q9GZQ6)
T2 construct: expressed in transfected cells; host or cells: HEK-293 T cells, transient co-transfection
T2 sequence (Q9GZQ6 whole entry): as above
Assay: Human NPFFR1 evaluation using BRET biosensors in HEK-293 T cells
Type: cell-based
Conditions: hNPFFR1 in HEK-293 T cells, stimulated by EC80 RFRP-3, read-out: IC50 of antagonist activity
Procedure: Compounds of the present invention were tested successively for their agonist and antagonist activities on human NPFFR1 (hNPFFR1) receptor transiently over-expressed in HEK-293 T cells. Compounds exert agonist activity if, by themselves in absence of neuropeptide RFRP-3 (also named NPVF) they activate hNPFFR1; and they exert antagonist activity if they decrease the action of RFRP-3 on the receptor. The assay used to measure compound activity is based on BRET (Bioluminescence Resonance Energy Transfer) biosensors and is designed to monitor the plasma membrane translocation of protein that interacts with specific Ga subunit. The specific effector (luciferase tagged: BRET donor) recruited at the membrane will be in close proximity to a plasma membrane anchor (GFP tagged: BRET acceptor) to induce a BRET signal (Ramdan et al, 2006, Chapter 5, Current Protocols in Neuroscience).
HEK-293 T cells are maintained in Dulbecco's Modified Eagle's Medium supplemented with 10% Foetal Calf Serum, 1% Penicillin/Streptomycin at 37° C./5% CO2. Cells are co-transfected using polyethylenimine (25 kDa linear) with four DNA plasmids encoding; hNPFFR1, GαoB, a Gi family specific intracellular effector fused to luciferase (BRET donor), a plasma membrane effector fused to GFP (BRET acceptor). After transfection, cells are cultured for 48 h at 37° C./5% CO2.
Receptor activity is detected by changes in BRET signal.
On the day of the assay, cells are detached using trypsin 0.05%, resuspended in assay buffer (1.8 mM CaCl2, 1 mM MgCl2, 2.7 mM KCl, 137 mM NaCl, 0.4 mM NaH2PO4, 5.5 mM D-Glucose, 11.9 mM NaHCO3, 25 mM Hepes) and seeded in 384 well plate at a density of 20,000 cells per well. Then, plates are equilibrated 3.5 hours at 37° C. before adding compounds.
Compounds and luciferase substrate are added to the cells using an automated device (Freedom Evo®, Tecan) and BRET readings are collected on EnVision (PerkinElmer) with specific filters (410 nm BW 80 nm, 515 nm BW 30 nm).
Agonist and antagonist activities of compounds are consecutively evaluated on the same cell plate. Agonist activity is first measured after 10 minutes incubation with compound alone on the cells. Then, cells are stimulated by an EC80 RFRP-3 concentration and luminescence is recorded for additional 10 minutes. EC80 RFRP-3 concentration is the concentration giving 80% of the maximal RFRP-3 response. Agonist or antagonist activities are evaluated in comparison to basal signals evoked by assay buffer or EC80 RFRP-3 alone, respectively.
For IC50 determination, a dose-response test is performed using 20 concentrations (ranging over 6 logs) of each compound. Dose-response curves are fitted using the sigmoidal dose-response (variable slope) analysis in GraphPad Prism software (GraphPad Software) and IC50 of antagonist activity is calculated. Dose-response experiments are performed in duplicate, in two independent experiments.
CN(C)c1ccccc1-c1ccc(N)nc1N [Compound 61, 3-(2-Dimethylamino-phenyl)-pyridine-2,6-diamine] gave an IC50 of 0.1 to 0.5 µM.
Compound Nc1ccc(-c2ccccc2OC2CC2)c(N)n1 [Compound 48, 3-(2-Cyclopropoxy-phenyl)-pyridine-2,6-diamine] has an IC50 of 0.1 to 0.5 µM.
With Nc1ccc(-c2ccccc2)c(N)n1 [Compound 1a, 3-phenylpyridine-2,6-diamine] the IC50 was > 1 µM.
With Nc1ccc(-c2ccccc2C2CC2)c(N)n1 [Compound 42, 3-(2-Cyclopropyl-phenyl)-pyridine-2,6-diamine] the IC50 was < 0.1 µM.
Compound Nc1ccc(-c2ccc(Cl)cc2OC2CCCC2)c(N)n1 [Compound 47, 3-(4-Chloro-2-cyclopentyloxy-phenyl)-pyridine-2,6-diamine] has an IC50 of 0.5 to 1 µM.
For COc1ccncc1-c1ccc(N)nc1N [Compound 88, 3-(4-methoxy-3-pyridyl)pyridine-2,6-diamine], the IC50 was > 1 µM.
Compound Nc1ccc(-c2ccccc2Cc2ccccc2)c(N)n1 [Compound 44, 3-(2-Benzyl-phenyl)-pyridine-2,6-diamine] has an IC50 of 0.1 to 0.5 µM.
In the case of Nc1ccc(-c2ccccc2OC(F)(F)F)c(N)n1 [Compound 2c, 3-(2-(trifluoromethoxy)phenyl) pyridine-2,6-diamine], the IC50 is reported as 0.5 to 1 µM.
In the case of Nc1ccc(-c2cc(Cl)ccc2C2CC2)c(N)n1 [Compound 55, 3-(5-Chloro-2-cyclopropyl-phenyl)-pyridine-2,6-diamine], the IC50 is reported as 0.1 to 0.5 µM.
With CCc1nc(N)ccc1-c1cccc(Cl)c1C [Compound 29, 5-(3-chloro-2-methyl-phenyl)-6-ethyl-pyridin-2-ylamine] the IC50 was 0.1 to 0.5 µM.
With Nc1ccc(-c2ccccc2Oc2ccccc2)c(N)n1 [Compound 43, 3-(2-Phenoxy-phenyl)-pyridine-2,6-diamine] the IC50 was 0.1 to 0.5 µM.
With COc1cccc(OC(C)C)c1-c1ccc(N)nc1N [Compound 39, 3-(2-Isopropoxy-6-methoxy-phenyl)-pyridine-2,6-diamine] the IC50 was > 1 µM.

System: not given
Assay: not given
Conditions: not given
Work on COc1ccccc1-c1ccc(N)nc1F [Compound 32, 6-Fluoro-5-(2-methoxy-phenyl)-pyridin-2-ylamine] yielded a melting point of 175 to 178 °C.
Compound Nc1ccc(-c2ccc(N3CCCCC3)nc2)c(N)n1 [Compound 79, 3-[6-(1-piperidyl)-3-pyridyl]pyridine-2,6-diamine] has a melting point of 155 to 159 °C.
For COc1ccccc1-c1ccc(N)nc1OC [Compound 35, 6-Methoxy-5-(2-methoxy-phenyl)-pyridin-2-ylamine], the melting point was 85 to 87 °C.
Nc1ncc(-c2cccc(Cl)c2Cl)cc1F [Compound 16, 5-(2,3-Dichloro-phenyl)-3-fluoro-pyridin-2-ylamine] gave a melting point of 130 to 136 °C.
For Nc1ccc(-c2cccc(Cl)c2Cl)c(C(F)(F)F)n1 [Compound 34, 5-(2,3-Dichloro-phenyl)-6-trifluoromethyl-pyridin-2-ylamine], the melting point was 165 to 170 °C.
Work on Nc1ccc(-c2cccc(Cl)c2Cl)c(F)n1 [Compound 33, 5-(2,3-Dichloro-phenyl)-6-fluoro-pyridin-2-ylamine] yielded a melting point of 139 to 144 °C.
COc1ccccc1-c1cnc(N)cc1C [Compound 21, 5-(2-Methoxy-phenyl)-4-methyl-pyridin-2-ylamine] showed a melting point of 85 to 88 °C.
For Cc1n[nH]c(C)c1-c1ccc(N)nc1N [Compound 90, 3-(3,5-dimethyl-1H-pyrazol-4-yl)pyridine-2,6-diamine], the melting point was > 250 °C.
Compound Nc1ccc(-c2cccnc2F)c(N)n1 [Compound 87, 3-(2-fluoro-3-pyridyl)pyridine-2,6-diamine] has a melting point of 184 to 188 °C.
For Cl.Nc1cc(OCC(F)(F)F)c(-c2cccc(Cl)c2Cl)cn1, the melting point was > 250 °C.
Work on COc1ccccc1-c1cnc(N)c(C)c1 [Compound 13, 5-(2-Methoxy-phenyl)-3-methyl-pyridin-2-ylamine] yielded a melting point of 92 to 95 °C.
